Experimental data from patent US20040033524A1, “Beta-adrenoceptor genetic polymorphisms and obesity” (priority 2001, published 2004).

Test system: individuals with hypertension
Assay: Blood pressure and heart rate response to metoprolol by β1AR codon 389 / codon 49 genotype
Type: in vivo, human
Conditions: for 24 hr SBP response (% change) / 24 hr DBP response (% change) / Daytime DBP response (% change) / Daytime SBP response (% change) / Nighttime DBP response (% change) / Nighttime SBP response (% change): at least 4 weeks
Method: Genetic variation (polymorphisms) in the gene encoding the beta 1-adrenergic receptor (β1AR) contribute to the variability in response to beta-blockers. There are two common, non-synonymous polymorphisms of the P AR gene and they result in either a serine (Ser) or glycine (Gly) at codon 49, and arginine (Arg) or glycine (Gly) at codon 389. The relationship between these polymorphisms and heart rate and blood pressure response to the beta-blocker metoprolol was tested in 28 individuals with hypertension.
Patients were washed out from all their antihypertensive medications for at least 2 weeks. They then underwent baseline testing which included recording of 24-hour ambulatory blood pressure data and treadmill exercise heart rate responses at 10 AM and 2 PM. Patients were started on metoprolol and titrated to a dose that produced a diastolic blood pressure DBP<90 mm Hg, or until they reached the maximum dose (200 mg twice daily). Patients were maintained on this target dose for at least 4 weeks and then underwent repeat studies, as at baseline.
Patients were also divided as responders or non-responders, with non-responders defined as those with a <10% decline in DBP, and compared allele frequencies in these groups.

[1] = Arg389Arg genotype, metoprolol titrated
[2] = Ser49Ser genotype, metoprolol titrated
[3] = codon 49 Gly carriers, metoprolol titrated
[4] = codon 389 Gly carriers, metoprolol titrated

## COCCc1ccc(OCC(O)CNC(C)C)cc1 (stereo not drawn) [metoprolol]
Arg389Arg genotype, metoprolol titrated to DBP<90 mm Hg or max 200 mg twice daily, 24-hour ambulatory BP vs baseline
  24 hr SBP response (% change): −10.5 ± 7.9 % change
[1]
  24 hr DBP response (% change): −12.6 ± 7.4 % change
  Daytime DBP response (% change): −13.6 ± 7.2 % change
  Daytime SBP response (% change): −11.6 ± 8.0 % change
  Nighttime DBP response (% change): −10.6 ± 11.6 % change
  Nighttime SBP response (% change): −7.5 ± 9.5 % change
Arg389 homozygotes compared to carriers of Gly389, not nighttime
  Daytime blood pressure response: significantly greater
[2]
  24 hr DBP response (% change): −10.7 ± 7.8 % change
  24 hr SBP response (% change): −10.1 ± 9.1 % change
  Daytime DBP response (% change): −10.3 ± 8.2 % change
  Daytime SBP response (% change): −10.2 ± 9.3 % change
  Nighttime DBP response (% change): −12.4 ± 9.4 % change
  Nighttime SBP response (% change): −9.3 ± 10.9 % change
Ser49 homozygotes compared to carriers of the Gly49 allele
  change in nighttime blood pressure: significantly greater
[3]
  24 hr DBP response (% change): −3.9 ± 8.9 % change
  24 hr SBP response (% change): −0.6 ± 12.2 % change
  Daytime DBP response (% change): −4.0 ± 10.4 % change
  Daytime SBP response (% change): −1.0 ± 12.8 % change
  Nighttime DBP response (% change): −3.1 ± 9.0 % change
  Nighttime SBP response (% change): +0.6 ± 11.8 % change
[4]
  24 hr DBP response (% change): −4.6 ± 8.3 % change
  Daytime DBP response (% change): −3.5 ± 8.7 % change
  Daytime SBP response (% change): −2.8 ± 12.5 % change
  Nighttime DBP response (% change): −7.3 ± 9.1 % change
  Nighttime SBP response (% change): −3.9 ± 13.9 % change
Codon 389 Gly carriers, metoprolol titrated, ambulatory BP vs baseline
  24 hr SBP response (% change): −3.3 ± 12.6 % change
Treadmill exercise heart rate, relation to β1AR genotype
  heart rate response to beta-blockade: not associated with genotype
